From ChEMBL document CHEMBL5356934, “Antibacterial activities of anthraquinones: structure-activity relationships and action mechanisms” (RSC Med Chem, 2023)
Converted amounts (≈) assume the structure as drawn.

Tests used:
Bacillus sp. = assay: Antibacterial activity against Bacillus sp. assessed as inhibition of bacterial growth; assay type: functional; settings: Bacillus sp. (in: firmicutes)
Staphylococcus aureus [1] = assay: Antibiofilm activity against Staphylococcus aureus CMCC 26003 assessed as reduction in live bacteria in biofilm formation incubated for 24 hrs by crystal violet staining based analysis; assay type: functional
Staphylococcus aureus [2] = assay: Antibacterial activity against Staphylococcus aureus ATCC 25923 assessed as reduction in bacterial growth incubated for 24 hrs by serial dilution method; assay type: functional
Staphylococcus aureus [3] = assay: Antibacterial activity against methicillin resistant Staphylococcus aureus ATCC 33592 incubated for 24 hrs by Mueller-Hinton broth based assay; assay type: functional
Bacillus subtilis = assay: Antibacterial activity against Bacillus subtilis ATCC 6051 assessed as reduction in bacterial growth incubated for 24 hrs by broth micro-dilution method; assay type: functional
[4] = tested on: Mycobacterium tuberculosis; assay: Anti-mycobacterial activity against Mycobacterium tuberculosis H37Ra assessed as reduction in bacterial growth […]; assay type: functional
Bacillus cereus [5] = assay: Antibacterial activity against Bacillus cereus TISTR 687 incubated for 16 to 18 hrs by Mueller-Hinton broth based two-fold serial dilution method; assay type: functional; settings: time 16-18 hrs
Streptococcus suis = assay: Antibacterial activity against Streptococcus suis ATCC 700794 assessed as bacterial growth inhibition incubated for 24 hrs by broth micro-dilution method; assay type: functional
Escherichia coli [6] = assay: Antibacterial activity against Escherichia coli ATCC 25922 assessed as bacterial growth inhibition measured after 48 hrs by resazurin assay; assay type: functional
Pseudomonas aeruginosa [7] = assay: Antibacterial activity against Pseudomonas aeruginosa assessed as reduction in bacterial growth by broth microdilution method; assay type: functional
Pseudomonas aeruginosa [8] = assay: Antibacterial activity against Pseudomonas aeruginosa TISTR 781 assessed as reduction in bacterial growth by broth microdilution method; assay type: functional
Pseudomonas aeruginosa [9] = assay: Antibacterial activity against Pseudomonas aeruginosa TISTR 781 assessed as inhibition of bacterial growth incubated for 16 to 18 hrs by Mueller-Hinton broth based two-fold serial dilution method; assay type: functional; settings: time 16-18 hrs
Salmonella typhimurium [10] = assay: Antibacterial activity against Salmonella typhimurium TISTR 780 assessed as inhibition of bacterial growth incubated for 16 to 18 hrs by Mueller-Hinton broth based two-fold serial dilution method; assay type: functional, Salmonella enterica subsp. enterica serovar Typhimurium; settings: Salmonella enterica, time 16-18 hrs
Haemophilus parasuis = assay: Antibacterial activity against Haemophilus parasuis clinical isolates assessed as bacterial growth inhibition measured after 16 to 24 hrs by broth microdilution assay; assay type: functional; settings: Glaesserella parasuis; time 16-24 hrs
Staphylococcus aureus [11] = assay: Antibacterial activity against Staphylococcus aureus 4125 assessed as reduction in bacterial growth; assay type: functional
Bacillus cereus [12] = assay: Antibacterial activity against Bacillus cereus; assay type: functional
Staphylococcus aureus [13] = assay: Antibacterial activity against Staphylococcus aureus ATCC 25923 assessed as reduction in microbial growth after 24 hrs by spectrophotometric method; assay type: functional
Pseudomonas aeruginosa [14] = assay: Antibacterial activity against wild type Pseudomonas aeruginosa ATCC 27853 after 24 hrs by microbroth dilution method; assay type: functional
Acetylcholinesterase = Acetylcholinesterase (Homo sapiens, UniProt P22303); assay: Inhibition of Acetylcholinesterase (unknown origin)
Salmonella = assay: Antibacterial activity against Salmonella ATCC 12022 assessed as inhibition of bacterial growth by standard broth microdilution method; assay type: functional
Escherichia coli [15] = assay: Antibacterial activity against Escherichia coli ATCC 8730 assessed as reduction in bacterial growth; assay type: functional
Porphyromonas gingivalis = assay: Antibacterial activity against Porphyromonas gingivalis ATCC 33277 assessed as reduction in bacterial growth incubated for 24 hrs by micro-dilution method; assay type: functional
Streptococcus mutans = assay: Antibacterial activity against Streptococcus mutans ATCC 25175 assessed as inhibition of bacterial growth incubated for 18 to 20 hrs by CLSI protocol based broth microdilution method; assay type: functional; settings: time 18-20 hrs
Staphylococcus aureus [16] = assay: Antibacterial activity against Staphylococcus aureus ATCC 25923 assessed as reduction in microbial growth incubated for 24 hrs by broth micro-dilution method; assay type: functional
Enterococcus faecium [17] = assay: Antibacterial activity against vancomycin-resistant Enterococcus faecium; assay type: functional
Enterococcus faecium [18] = assay: Antibacterial activity against vancomycin susceptible Enterococcus faecium119-39A assessed as inhibition of bacterial growth by broth microdilution method; assay type: functional; settings: 119-39A
Staphylococcus aureus [19] = assay: Antibacterial activity against methicillin-resistant Staphylococcus aureus J-108; assay type: functional
Staphylococcus aureus [20] = assay: Antibacterial activity against methicillin-susceptible Staphylococcus aureus assessed as reduction in bacterial growth; assay type: functional
Proteus vulgaris = assay: Antimicrobial activity against Proteus vulgaris assessed as inhibition of bacterial growth; assay type: functional
Bacillus cereus [21] = assay: Antibacterial activity against Bacillus cereus assessed as reduction in microbial growth after 18 hrs by MTT based broth dilution method; assay type: functional
Staphylococcus aureus [22] = assay: Antibacterial activity against Staphylococcus aureus assessed as reduction in microbial growth; assay type: functional
[23] = tested on: Staphylococcus epidermidis; assay: Antibacterial activity against Staphylococcus epidermidis assessed as reduction in microbial growth; assay type: functional
[24] = tested on: Mycobacterium tuberculosis; assay: Antimycobacterial activity against Mycobacterium tuberculosis H37Ra assessed as reduction in microbial growth; assay type: functional
Escherichia coli [25] = assay: Antibacterial activity against Escherichia coli assessed as reduction in bacterial growth incubated for 12 hrs by microdilution method; assay type: functional
Escherichia coli [26] = assay: Antimicrobial activity against Escherichia coli assessed as reduction in microbial growth; assay type: functional
Aeromonas hydrophila [27] = assay: Antibacterial activity against Aeromonas hydrophila IB101; assay type: functional
Aeromonas hydrophila [28] = assay: Antibacterial activity against Aeromonas hydrophila; assay type: functional
Rothia kristinae = assay: Antibacterial activity against Rothia kristinae assessed as reduction in microbial growth; assay type: functional
Klebsiella aerogenes = assay: Antimicrobial activity against Enterobacter aerogenes ATCC 45102; assay type: functional
Pseudomonas aeruginosa [29] = assay: Antibacterial activity against Pseudomonas aeruginosa assessed as reduction in bacterial growth incubated for 24 hrs by broth microdilution method; assay type: functional
Cryptococcus neoformans = assay: Antifungal activity against Cryptococcus neoformans assessed as reduction in microbial growth; assay type: functional
Candida albicans = assay: Antifungal activity against Candida albicans assessed as fungal growth inhibition by broth microdilution method; assay type: functional
Vibrio harveyi = assay: Antimicrobial activity against Vibrio harveyi assessed as bacterial growth inhibition; assay type: functional
Neisseria gonorrhoeae = assay: Antibacterial activity against resistant Neisseria gonorrhoeae assessed inhibition of bacterial growth; assay type: functional
Trichophyton rubrum = assay: Antifungal activity against Trichophyton rubrum assessed as fungal growth inhibition; assay type: functional
Epidermophyton floccosum = assay: Antifungal activity against Epidermophyton floccosum measured after 96 hrs by two fold serial dilution technique; assay type: functional
Pseudomonas aeruginosa [30] = assay: Antibacterial activity against Pseudomonas aeruginosa assessed as zone of inhibition; assay type: functional
Escherichia coli [31] = assay: Antibacterial activity against Escherichia coli assessed as zone of inhibition; assay type: functional
Salmonella typhimurium [32] = assay: Antibacterial activity against Salmonella typhimurium ATCC 1255 assessed as reduction in bacterial growth; assay type: functional, Salmonella enterica subsp. enterica serovar Typhimurium; settings: Salmonella enterica
Staphylococcus aureus [33] = assay: Antibacterial activity against Staphylococcus aureus NCTC 11994 assessed as reduction in bacterial growth; assay type: functional
Staphylococcus aureus [34] = assay: Antibacterial activity against methicillin-resistant Staphylococcus aureus ATCC 43300 assessed as reduction in bacterial growth by CLSI protocol based broth microdilution method; assay type: functional
Staphylococcus aureus [35] = assay: Antibacterial activity against methicillin-resistant Staphylococcus aureus CGMCC1.12483 assessed as reduction in bacterial growth by CLSI protocol based broth microdilution method; assay type: functional
Vibrio rotiferianus = assay: Antibacterial activity against Vibrio rotiferianus MCCC E385 assessed as cell growth inhibition measured after 24 hrs by resazurin dye based assay; assay type: functional
Vibrio campbellii = assay: Antibacterial activity against Vibrio campbellii MCCC E333 assessed as cell growth inhibition measured after 24 hrs by resazurin dye based assay; assay type: functional
Staphylococcus aureus [36] = assay: Antibacterial activity against Staphylococcus aureus assessed as diameter of inhibition zone; assay type: functional

Acetylcholinesterase, sequence (P22303 whole entry): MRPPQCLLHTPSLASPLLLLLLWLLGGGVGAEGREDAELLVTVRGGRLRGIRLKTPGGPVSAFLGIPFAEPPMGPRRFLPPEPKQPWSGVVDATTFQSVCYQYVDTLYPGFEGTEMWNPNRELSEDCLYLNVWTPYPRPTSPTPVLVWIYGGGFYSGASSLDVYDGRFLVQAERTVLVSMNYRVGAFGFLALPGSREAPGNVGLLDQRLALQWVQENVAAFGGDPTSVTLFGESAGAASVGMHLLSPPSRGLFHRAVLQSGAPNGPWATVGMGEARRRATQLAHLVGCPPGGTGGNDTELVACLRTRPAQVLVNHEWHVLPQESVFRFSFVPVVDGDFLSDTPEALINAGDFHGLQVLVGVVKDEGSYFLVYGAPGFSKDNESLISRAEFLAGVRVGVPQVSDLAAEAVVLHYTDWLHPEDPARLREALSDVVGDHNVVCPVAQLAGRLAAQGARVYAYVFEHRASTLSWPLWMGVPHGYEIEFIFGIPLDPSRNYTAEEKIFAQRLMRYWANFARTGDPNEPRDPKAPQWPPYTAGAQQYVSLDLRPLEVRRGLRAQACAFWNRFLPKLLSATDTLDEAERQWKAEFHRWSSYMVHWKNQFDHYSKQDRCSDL

Cc1cc(O)c2c(c1)C(=O)c1cc(O)cc(O)c1C2=O [EMODIN]
MIC (Bacillus sp.): 0.5 µg/mL (≈ 1.85 µM)
MIC (Staphylococcus aureus [1]): 0.125 µg/mL (≈ 0.463 µM)
MIC (Staphylococcus aureus [2]): 64 µg/mL (≈ 237 µM)
MIC (Staphylococcus aureus [3]): 4 µg/mL (≈ 14.8 µM)
MIC (Bacillus subtilis): 8 µg/mL (≈ 29.6 µM)
MIC [4]: 0.9 µg/mL (≈ 3.33 µM)
MIC (Bacillus cereus [5]): 16 µg/mL (≈ 59.2 µM)
MIC (Streptococcus suis): 0.125 µg/mL (≈ 0.463 µM)
MIC (Escherichia coli [6]): > 128 µg/mL
MIC (Pseudomonas aeruginosa [7]): > 128 µg/mL
MIC (Pseudomonas aeruginosa [8]): > 128 µg/mL
MIC (Pseudomonas aeruginosa [9]): 128 µg/mL (≈ 474 µM)
MIC (Salmonella typhimurium [10]): 128 µg/mL (≈ 474 µM)
MIC (Haemophilus parasuis): 32 µg/mL (≈ 118 µM)
MIC (Staphylococcus aureus [11]): 20 µg/mL (≈ 74 µM)

COC1=CC(=O)c2c(O)c3c(c(O)c2C1=O)CC(C)(O)C(OC(C)=O)C3 (centres undefined)
MIC (Bacillus cereus [12]): 0.0088 µM (≈ 0.00319 µg/mL)

CN(CCC(O)COc1cccc2c(=O)c3ccc(Cl)cc3oc12)C(C)(C)C (centres undefined)
MIC (Staphylococcus aureus [13]): < 20 µg/mL

COC1=CC(=O)c2c(cc3c(c2O)CC(O)C(C)(O)C3)C1=O (centres undefined)
MIC (Bacillus cereus [12]): 0.312 µM (≈ 0.0949 µg/mL)

Cc1cccc2c(=O)c3ccc(OCC(O)CNC(C)C)cc3oc12 (centres undefined)
MIC (Staphylococcus aureus [13]): < 20 µg/mL

COc1cc(C=O)c2c(=O)c3ccccc3oc2c1O
MIC (Pseudomonas aeruginosa [14]): 32 µg/mL (≈ 118 µM)

O=C1c2ccccc2C(=O)c2c(O)c(O)cc(O)c21 [PURPURIN]
IC50 (Acetylcholinesterase): 300 nM

O=C1c2cccc(O)c2C(=O)c2c(O)cc(CO)cc21 [ALOE-EMODIN]
MIC (Salmonella): 250 µg/mL (≈ 925 µM)
MIC (Escherichia coli [15]): 125 µg/mL (≈ 463 µM)
MIC (Porphyromonas gingivalis): 2.5 µg/mL (≈ 9.25 µM)
MIC (Streptococcus mutans): 6.25 µg/mL (≈ 23.1 µM)
MIC (Staphylococcus aureus [16]): 4 µg/mL

COc1cc2oc3cc(O)c(OC)c(CC=C(C)C)c3c(=O)c2c(O)c1CC=C(C)C
MIC (Enterococcus faecium [17]): 6.25 µg/mL (≈ 14.7 µM)
MIC (Enterococcus faecium [18]): 6.25 µg/mL (≈ 14.7 µM)
MIC (Staphylococcus aureus [19]): 3.13 µg/mL (≈ 7.37 µM)
MIC (Staphylococcus aureus [20]): 6.25 µg/mL (≈ 14.7 µM)

Cc1cc(O)c2c(c1)C(=O)c1cccc(O)c1C2=O [CHRYSOPHANOL]
MIC (Proteus vulgaris): 128 µg/mL (≈ 503 µM)
MIC (Bacillus cereus [21]): > 250 µg/mL
MIC (Staphylococcus aureus [22]): > 250 µg/mL
MIC [23]: > 250 µg/mL
MIC [24]: 64 µg/mL
MIC (Escherichia coli [25]): 125 µg/mL (≈ 492 µM)
MIC (Escherichia coli [26]): 3.13 µg/mL
MIC (Aeromonas hydrophila [27]): 200 µg/mL (≈ 787 µM)
MIC (Aeromonas hydrophila [28]): 200 µg/mL (≈ 787 µM)
MIC (Rothia kristinae): > 250 µg/mL
MIC (Klebsiella aerogenes): > 250 µg/mL
MIC (Pseudomonas aeruginosa [29]): 128 µg/mL (≈ 503 µM)
MIC (Staphylococcus aureus [11]): 90 µg/mL (≈ 354 µM)
MIC (Cryptococcus neoformans): 50 µg/mL
MIC (Candida albicans): 50 µg/mL (≈ 197 µM)
MIC (Vibrio harveyi): 1000 µg/mL (≈ 3930 µM)
MIC (Neisseria gonorrhoeae): 75 µg/mL (≈ 295 µM)
MIC (Trichophyton rubrum): 156 µg/mL (≈ 614 µM)
MIC (Epidermophyton floccosum): 625 µg/mL (≈ 2460 µM)
inhibition zone (IZ) (Pseudomonas aeruginosa [30]): 18 mm
inhibition zone (IZ) (Escherichia coli [31]): 18 mm

COc1cc(C)c2c(c1[C@@H]1O[C@@H](CO)C(O)[C@@H](O)[C@@H]1OC(=O)/C=C\c1ccc(O)cc1)CC(CC(C)=O)=CC2=O (some centres undefined)
MIC (Salmonella typhimurium [32]): 0.18 µM (≈ 0.0995 µg/mL)
MIC (Staphylococcus aureus [33]): 0.72 µM (≈ 0.398 µg/mL)

CC1=CC2c3c(O)c(O)c4oc5cc(O)cc(O)c5c(=O)c4c3[C@H](c3cc(O)c(O)c4oc5cc(O)cc(O)c5c(=O)c34)C2C(C)(C)C1 (some centres undefined)
MIC (Staphylococcus aureus [34]): 3.9 µg/mL (≈ 5.98 µM)
MIC (Staphylococcus aureus [35]): 3.9 µg/mL (≈ 5.98 µM)
MIC (Vibrio rotiferianus): 15.6 µg/mL (≈ 23.9 µM)
MIC (Vibrio campbellii): 15.6 µg/mL (≈ 23.9 µM)

CN(CCO)CC(O)COc1cccc2c(=O)c3ccccc3oc12 (centres undefined)
MIC (Staphylococcus aureus [13]): < 20 µg/mL

COc1cc(O)c2c(c1)C(=O)c1cc(C)cc(O)c1C2=O [PHYSCION]
MIC (Staphylococcus aureus [11]): 90 µg/mL (≈ 317 µM)

COc1c(O)c(C=O)cc2c(=O)c3ccccc3oc12
MIC (Pseudomonas aeruginosa [14]): 32 µg/mL (≈ 118 µM)

C=CCNCC(O)COc1ccc2c(=O)c3cccc(C)c3oc2c1 (centres undefined)
MIC (Staphylococcus aureus [13]): < 20 µg/mL

CCCOc1ccc(N2CCCCC2)c2c(=O)c3ccccc3sc12
MIC (Pseudomonas aeruginosa [14]): 32 µg/mL (≈ 90.5 µM)

COc1ccccc1CNCCC(O)COc1cccc2c(=O)c3ccccc3oc12 (centres undefined)
MIC (Staphylococcus aureus [13]): < 20 µg/mL

COc1cc2c(c(O)c1OC)c(=O)c1ccc(O)cc1n2C
diameter of the inhibition zone (DIZ) (Staphylococcus aureus [36]): 9.58 mm
